Converted amounts (≈) assume the structure as drawn. Values belong to the compound of their own block, whether it stands above or below them.
Legend:
KB cells [1] = assay: Preliminary KB cell assay (cytotoxicity); format: cell-based; details: Homo sapiens, numbering of Examples 14-16, read-out: ED50 (the source's name)
Protocol: Many anthraquinones, including mitoxantrone (1), show antineoplastic activity (Zee-Cheng, R. Y.; Podrebarac, E. G; Menon, C. S.; Cheng, C. C. J. Med. Chem. 1979, 22, 501-505). In addition, the natural product 2-acetyl-4H, 9H-naphtho[2,3-b]furan-4,9-dione (2) isolated from Tabebuia cassinoids (Lam.) DC.
The unsubstituted (3), two mono-acetyl (5, 6), and two di-acetyl (9, 10) derivatives were tested for cytotoxicity in a preliminary KB cell assay.

LOX IMVI = assay: NCI in vitro disease-oriented tumor cells screen; format: cell-based, human; details: Homo sapiens; Melanoma LOX IMVI; Table 3 (numbering of Examples 14-16); average of at least two testings; read-out: Cytotoxicity log GI50 (converted)
Text: (§1) (Activity is defined as log GI50<−4 where GI50 is the molar concentration causing 50% cell growth inhibition).

SK-MEL-5 = assay: NCI in vitro disease-oriented tumor cells screen; format: cell-based, human; details: Homo sapiens; Melanoma SK-MEL-5; Table 3 (numbering of Examples 14-16); average of at least two testings; read-out: Cytotoxicity log GI50 (converted)
Text: as §1

NCI-H23 = assay: NCI in vitro disease-oriented tumor cells screen; format: cell-based, human; details: Homo sapiens; Non-Small Cell Lung Cancer NCI-H23; Table 3 (numbering of Examples 14-16); average of at least two testings; read-out: Cytotoxicity log GI50 (converted)
Text: as §1

OVCAR-3 = assay: NCI in vitro disease-oriented tumor cells screen; format: cell-based, human; details: Homo sapiens; Ovarian Cancer OVCAR-3; Table 3 (numbering of Examples 14-16); average of at least two testings; read-out: Cytotoxicity log GI50 (converted)
Text: as §1

MDA-MB-435 = assay: NCI in vitro disease-oriented tumor cells screen; format: cell-based, human; details: Homo sapiens; Breast Cancer MDA-MB-435; Table 3 (numbering of Examples 14-16); average of at least two testings; read-out: Cytotoxicity log GI50 (converted)
Text: as §1

MDA-N = assay: NCI in vitro disease-oriented tumor cells screen; format: cell-based, human; details: Homo sapiens; Breast Cancer MDA-N; Table 3 (numbering of Examples 14-16); average of at least two testings; read-out: Cytotoxicity log GI50 (converted)
Text: as §1

CCRF-CEM = assay: NCI in vitro human tumor cell line assay; format: cell-based; details: Leukemia CCRF-CEM, Table 3 (numbering of Examples 14-16), average of at least two testings, read-out: Cytotoxicity log GI50 (converted)
NCI-H460 = assay: NCI in vitro human tumor cell line assay; format: cell-based; details: Non-Small Cell Lung Cancer NCI-H460, Table 3 (numbering of Examples 14-16), average of at least two testings, read-out: Cytotoxicity log GI50 (converted)
NCI-H552 = assay: NCI in vitro human tumor cell line assay; format: cell-based; details: Non-Small Cell Lung Cancer NCI-H552, Table 3 (numbering of Examples 14-16), average of at least two testings, read-out: Cytotoxicity log GI50 (converted)
HCT-15 = assay: NCI in vitro human tumor cell line assay; format: cell-based; details: Colon Cancer HCT-15, Table 3 (numbering of Examples 14-16), average of at least two testings, read-out: Cytotoxicity log GI50 (converted)
SW-620 = assay: NCI in vitro human tumor cell line assay; format: cell-based; details: Colon Cancer SW-620, Table 3 (numbering of Examples 14-16), average of at least two testings, read-out: Cytotoxicity log GI50 (converted)
SF-539 = assay: NCI in vitro human tumor cell line assay; format: cell-based; details: CNS Cancer SF-539, Table 3 (numbering of Examples 14-16), average of at least two testings, read-out: Cytotoxicity log GI50 (converted)
SNB-19 = assay: NCI in vitro human tumor cell line assay; format: cell-based; details: CNS Cancer SNB-19, Table 3 (numbering of Examples 14-16), average of at least two testings, read-out: Cytotoxicity log GI50 (converted)
IGROV1 = assay: NCI in vitro human tumor cell line assay; format: cell-based; details: IGROV-1, Ovarian Cancer IGROV1, Table 3 (numbering of Examples 14-16), average of at least two testings, read-out: Cytotoxicity log GI50 (converted)
MCF 7 = assay: NCI in vitro human tumor cell line assay; format: cell-based; details: MCF7, Breast Cancer MCF 7, Table 3 (numbering of Examples 14-16), average of at least two testings, read-out: Cytotoxicity log GI50 (converted)
MCF 7/ADR-RES = assay: NCI in vitro human tumor cell line assay; format: cell-based; details: MCF7, Breast Cancer MCF 7/ADR-RES, Table 3 (numbering of Examples 14-16), average of at least two testings, read-out: Cytotoxicity log GI50 (converted)
KB cells [2] = details: KB cells; background, numbering of Examples 1-13; cited from earlier work
MOLT-4 = assay: NCI in vitro human tumor cell line assay; details: MOLT-4, read-out: Cytotoxicity log GI50 (converted)
human tumor cell lines = assay: NCI in vitro screen, mean over all cell lines tested; details: Homo sapiens, read-out: Cytotoxicity log GI50, Mean Value (converted)
Text: as §1

SMILES: O=C1c2ccccc2C(=O)c2sccc21 [Compound 3, naphtho[2,3-b]thiophene-4,9-dione, reference compound]
EC50 (KB cells [1]): 6500 nM

melting point: 139 to 140 °C
SMILES: CC(=O)c1cc2c(s1)C(=O)c1ccccc1C2=O [Compound 5, 2-Acetyl-naphtho[2,3-b]thiophene-4,9-dione]
GI50 (LOX IMVI): 347 nM
GI50 (SK-MEL-5): 347 nM
GI50 (NCI-H23): 447 nM
GI50 (OVCAR-3): 501 nM
GI50 (MDA-MB-435): 339 nM
GI50 (MDA-N): 1200 nM
GI50 (CCRF-CEM): 1000 nM
GI50 (NCI-H460): 457 nM
GI50 (NCI-H552): 407 nM
GI50 (HCT-15): 708 nM
GI50 (SW-620): 457 nM
GI50 (SF-539): 759 nM
GI50 (SNB-19): 501 nM
GI50 (IGROV1): 1780 nM
GI50 (MCF 7): 1700 nM
GI50 (MCF 7/ADR-RES): 1910 nM
EC50 (KB cells [1]): ~1500 nM
ED50 (KB cells [2]): 0.4 µg/mL (≈ 1.56 µM)
GI50 (MOLT-4): 2040 nM
GI50 (human tumor cell lines): 1950 nM

Reference: patent US6337346B1 (University of North Carolina at Chapel Hill, priority 1998, dated 2002)
